Test results as given in patent US20100329971A1, “NOVEL HYDROXY RADICAL GENERATION METHOD, AND ANTI-VIRAL MATERIAL UTILIZING HYDROXYL RADICAL GENERATED BY THE METHOD” (MOCHIGASE CO., LTD., priority 2008, published 2010).
Marks after values point to notes of the source that are not given here.

Columns and labels:
[1] = Amount of generated hydroxyl radicals under shaded condition or room light, HPF reagent (Example 14); details: measured 1 hour after preparation
[2] = Amount of generated hydroxyl radicals using combinations of calcium hydroxide, magnesium oxide and magnesium hydroxide (Example 17); details: left shaded for 72 hours; total 1% by weight; only calcium hydroxide = 100%
Experimental: Specifically, each reagent was mixed as described below to prepare a specimen to be measured using a suspension of a metal oxide and/or a hydroxide in a manner similar to Example 15. HPF reagent (Daiichi Pure Chemicals Co., Ltd.): 0.1 μL 0.5 M phosphoric acid buffer (pH 7.0): 20 μL Pure water: 49.9 μL Each suspension: 30 μL Table 7 indicates the concentrations and amounts of metal oxide and/or hydroxide in each specimen to be measured. [table]

[3] = Amount of generated hydroxyl radicals using metal oxides and hydroxides, HPF reagent (Example 15); details: left shaded for 1 hour; 100% = 0.1% titanium oxide irradiated with room light 30 minutes
[4] = Quantification of hydroxyl radical production by HPF fluorescence intensity (Examples 13 and 18); details: HPF 5 μM, room temperature 15 minutes; for Amount of generated radicals: 0.1 M phosphoric acid buffer, fluorescence intensity
[5] = Duration of hydroxyl radical generation, HPF reagent (Example 16); details: shaded, 100% = 0.1% titanium oxide irradiated with room light 30 minutes
spike proteins = spike proteins (Severe acute respiratory syndrome coronavirus, UniProt P59594)
[6] = Shaded, 100% = 0.1% titanium oxide irradiated 30 minutes

Row | Compound | Amount of generated hydroxyl radicals % of activity in Ca(OH)2 [2] | Amount of generated hydroxyl radicals (% of control) [3] | Amount of generated radicals [4] | Amount of generated hydroxyl radicals (% of control) After 1 hour [5] | Amount of generated hydroxyl radicals (% of control) After 12 hours [5] | other results
1 | [O]=[Ti]=[O] [0.1% titanium oxide, titanium oxide] | – | – | – | – | – | Amount of generated hydroxyl radicals ([1]; Irradiated with room light for 30 minutes then shaded, this value assumed to be 100%): 100^1) %; Amount of generated hydroxyl radicals [1, 6]: 3.92%
2 | [Ca+2].[OH-].[OH-] [Calcium hydroxide (1%), calcium hydroxide] | 100.00 % of activity in Ca(OH)2 | 14.27 % of control | 6236 | 14.27 % of control | 47.49 % of control | –
3 | [Mg+2].[OH-].[OH-] [Magnesium hydroxide (1%), magnesium hydroxide] | 144.14 % of activity in Ca(OH)2 | 26.17 % of control | 11907 | 26.17 % of control | 62.18 % of control | Amount of generated hydroxyl radicals [1, 6]: 28.33%
4 | [O]=[Mg] [Magnesium oxide (1%), magnesium oxide, reference compound] | 77.84 % of activity in Ca(OH)2 | 15.07 % of control | 3918 | 15.07 % of control | 34.15 % of control | –
5 | [K+].[OH-] [Potassium hydroxide (1%), potassium hydroxide] | – | 2.88 % of control | – | – | – | –
6 | [Na+].[OH-] [Sodium hydroxide (1%), sodium hydroxide] | – | 3.29 % of control | – | – | – | –
7 | O=C([O-])c1ccccc1O.[Na+] [sodium salicylate] | – | – | – | – | – | bands corresponding to spike proteins, electrophoresis without a reducing agent (spike proteins): recovery of bands corresponding to spike proteins was confirmed
8 | [Mg+2].[OH-].[OH-] [specimen No. 7, magnesium hydroxide] | – | – | – | – | – | amounts of generated radicals (rank order) ([4]; comparison of specimens Nos. 7, 8 and 3): specimen No. 7>specimen No. 8>specimen No. 3
